Test results published in ChEMBL document CHEMBL1201862, “PubChem BioAssay data set” (2004).
Blank lines part the entries; values can stand above or below the molecule they belong to. Activity calls are given as the source filed them.

Legend:
[1] = growth suppression of PTEN-null colon cells, dose response, cell-based, HCT116 PTEN knockout (AID 1047); format: functional;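 further: HCT116 colon tumor cells with PTEN knocked out; cells exposed to compound for 60 hours before readout; potency for loss of cell viability measured by luminescence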
[2] = target: T1, Sentrin-specific protease 7 (Homo sapiens, UniProt Q9BQF6); format: functional;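 further: Luminescence-based dose-response confirmation of ultra-high-throughput screening hits, measuring inhibition of SENP7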
T1 sequence (Q9BQF6 whole entry): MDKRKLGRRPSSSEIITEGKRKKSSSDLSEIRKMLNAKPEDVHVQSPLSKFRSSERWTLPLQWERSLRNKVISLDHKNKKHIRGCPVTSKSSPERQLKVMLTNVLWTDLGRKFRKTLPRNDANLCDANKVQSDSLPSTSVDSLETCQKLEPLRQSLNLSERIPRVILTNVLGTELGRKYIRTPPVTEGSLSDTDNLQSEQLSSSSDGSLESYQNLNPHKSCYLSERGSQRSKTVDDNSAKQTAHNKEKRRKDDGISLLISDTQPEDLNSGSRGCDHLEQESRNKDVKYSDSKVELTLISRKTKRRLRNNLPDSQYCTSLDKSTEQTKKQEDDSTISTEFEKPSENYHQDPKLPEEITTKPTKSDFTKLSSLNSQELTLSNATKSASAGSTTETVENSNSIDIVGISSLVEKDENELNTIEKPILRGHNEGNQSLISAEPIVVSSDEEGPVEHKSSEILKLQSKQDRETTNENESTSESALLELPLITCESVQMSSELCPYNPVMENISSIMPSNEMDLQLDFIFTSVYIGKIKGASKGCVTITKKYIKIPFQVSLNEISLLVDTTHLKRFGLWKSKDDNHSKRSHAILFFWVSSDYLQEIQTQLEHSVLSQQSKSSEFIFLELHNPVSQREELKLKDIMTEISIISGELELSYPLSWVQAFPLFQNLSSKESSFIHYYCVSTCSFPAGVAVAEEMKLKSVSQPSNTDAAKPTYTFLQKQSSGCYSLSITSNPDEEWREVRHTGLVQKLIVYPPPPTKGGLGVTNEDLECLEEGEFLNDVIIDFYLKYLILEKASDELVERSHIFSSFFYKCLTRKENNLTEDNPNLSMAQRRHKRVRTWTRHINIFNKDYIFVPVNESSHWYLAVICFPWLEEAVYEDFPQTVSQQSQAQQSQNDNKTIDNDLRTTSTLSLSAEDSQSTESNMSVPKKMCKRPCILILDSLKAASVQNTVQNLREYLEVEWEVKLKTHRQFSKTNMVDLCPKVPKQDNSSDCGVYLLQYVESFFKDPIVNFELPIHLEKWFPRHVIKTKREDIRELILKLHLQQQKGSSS

[3] = target: Serine/threonine-protein kinase MRCK alpha (Homo sapiens, UniProt Q5VT25); format: functional
Sequence of Serine/threonine-protein kinase MRCK alpha (Q5VT25 whole entry): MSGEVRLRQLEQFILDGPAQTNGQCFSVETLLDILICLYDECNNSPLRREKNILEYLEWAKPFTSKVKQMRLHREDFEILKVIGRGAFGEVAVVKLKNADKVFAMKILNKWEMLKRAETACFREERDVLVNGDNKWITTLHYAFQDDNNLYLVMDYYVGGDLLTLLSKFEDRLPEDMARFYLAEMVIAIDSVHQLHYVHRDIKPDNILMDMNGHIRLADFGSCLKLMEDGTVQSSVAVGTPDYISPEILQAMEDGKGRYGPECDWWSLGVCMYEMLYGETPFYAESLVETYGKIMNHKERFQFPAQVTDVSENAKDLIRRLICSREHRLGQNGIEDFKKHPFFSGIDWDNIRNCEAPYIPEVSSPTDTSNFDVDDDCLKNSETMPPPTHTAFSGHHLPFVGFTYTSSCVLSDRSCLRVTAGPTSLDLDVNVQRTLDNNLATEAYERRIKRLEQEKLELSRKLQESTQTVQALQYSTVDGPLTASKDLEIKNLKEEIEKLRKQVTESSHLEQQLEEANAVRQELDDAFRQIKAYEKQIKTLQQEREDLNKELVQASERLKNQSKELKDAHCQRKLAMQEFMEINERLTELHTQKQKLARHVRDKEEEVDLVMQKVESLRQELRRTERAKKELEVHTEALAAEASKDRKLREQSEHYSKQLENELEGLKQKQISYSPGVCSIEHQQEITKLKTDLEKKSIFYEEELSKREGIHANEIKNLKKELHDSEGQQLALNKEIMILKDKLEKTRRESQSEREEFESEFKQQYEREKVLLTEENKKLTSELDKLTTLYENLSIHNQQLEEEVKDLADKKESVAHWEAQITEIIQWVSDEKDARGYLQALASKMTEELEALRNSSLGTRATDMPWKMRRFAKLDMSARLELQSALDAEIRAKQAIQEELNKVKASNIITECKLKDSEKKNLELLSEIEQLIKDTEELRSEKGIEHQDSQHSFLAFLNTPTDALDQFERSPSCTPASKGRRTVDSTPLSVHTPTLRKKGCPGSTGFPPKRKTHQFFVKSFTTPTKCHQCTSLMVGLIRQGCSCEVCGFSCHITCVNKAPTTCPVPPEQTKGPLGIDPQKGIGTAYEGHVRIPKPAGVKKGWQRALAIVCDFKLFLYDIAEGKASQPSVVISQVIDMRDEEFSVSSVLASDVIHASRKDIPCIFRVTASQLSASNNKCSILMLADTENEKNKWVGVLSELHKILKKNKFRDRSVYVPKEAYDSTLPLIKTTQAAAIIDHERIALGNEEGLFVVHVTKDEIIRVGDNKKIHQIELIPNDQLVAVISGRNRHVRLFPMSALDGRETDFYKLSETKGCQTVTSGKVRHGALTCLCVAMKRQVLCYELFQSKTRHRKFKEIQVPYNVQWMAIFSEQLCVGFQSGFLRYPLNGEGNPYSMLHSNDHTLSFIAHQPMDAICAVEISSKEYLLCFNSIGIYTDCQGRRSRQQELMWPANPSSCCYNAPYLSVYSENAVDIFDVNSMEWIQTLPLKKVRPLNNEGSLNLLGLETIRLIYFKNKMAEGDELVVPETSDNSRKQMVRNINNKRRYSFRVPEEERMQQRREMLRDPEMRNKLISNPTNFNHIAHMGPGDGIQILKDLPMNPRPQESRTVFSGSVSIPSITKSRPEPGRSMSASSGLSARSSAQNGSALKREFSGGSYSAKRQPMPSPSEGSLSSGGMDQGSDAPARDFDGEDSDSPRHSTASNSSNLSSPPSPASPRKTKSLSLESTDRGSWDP

[4] = target: Calcium/calmodulin-dependent protein kinase type 1 (Homo sapiens, UniProt Q14012); format: functional
[5] = target: Mitogen-activated protein kinase 9 (Homo sapiens, UniProt P45984); format: functional;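 further: value from a kinome panel profiling assay, MAPK9 panel entry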
Sequence of Mitogen-activated protein kinase 9 (P45984 whole entry): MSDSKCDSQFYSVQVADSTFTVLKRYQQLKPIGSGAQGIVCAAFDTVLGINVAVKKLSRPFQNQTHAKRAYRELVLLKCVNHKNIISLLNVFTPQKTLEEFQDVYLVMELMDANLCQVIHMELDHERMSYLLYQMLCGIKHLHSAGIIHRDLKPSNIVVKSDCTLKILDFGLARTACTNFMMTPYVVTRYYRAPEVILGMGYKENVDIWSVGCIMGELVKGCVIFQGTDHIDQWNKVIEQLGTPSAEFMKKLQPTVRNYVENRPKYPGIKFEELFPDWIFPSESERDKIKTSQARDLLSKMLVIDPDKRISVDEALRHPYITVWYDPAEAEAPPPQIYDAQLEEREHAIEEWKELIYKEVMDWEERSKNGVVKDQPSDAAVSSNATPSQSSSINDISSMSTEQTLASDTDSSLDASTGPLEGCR

[6] = target: Serine/threonine-protein kinase PLK1 (Homo sapiens, UniProt P53350); format: functional;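 further: PLK1 measured as one member of a kinome-wide profiling panel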
Sequence of Serine/threonine-protein kinase PLK1 (P53350 whole entry, canonical isoform): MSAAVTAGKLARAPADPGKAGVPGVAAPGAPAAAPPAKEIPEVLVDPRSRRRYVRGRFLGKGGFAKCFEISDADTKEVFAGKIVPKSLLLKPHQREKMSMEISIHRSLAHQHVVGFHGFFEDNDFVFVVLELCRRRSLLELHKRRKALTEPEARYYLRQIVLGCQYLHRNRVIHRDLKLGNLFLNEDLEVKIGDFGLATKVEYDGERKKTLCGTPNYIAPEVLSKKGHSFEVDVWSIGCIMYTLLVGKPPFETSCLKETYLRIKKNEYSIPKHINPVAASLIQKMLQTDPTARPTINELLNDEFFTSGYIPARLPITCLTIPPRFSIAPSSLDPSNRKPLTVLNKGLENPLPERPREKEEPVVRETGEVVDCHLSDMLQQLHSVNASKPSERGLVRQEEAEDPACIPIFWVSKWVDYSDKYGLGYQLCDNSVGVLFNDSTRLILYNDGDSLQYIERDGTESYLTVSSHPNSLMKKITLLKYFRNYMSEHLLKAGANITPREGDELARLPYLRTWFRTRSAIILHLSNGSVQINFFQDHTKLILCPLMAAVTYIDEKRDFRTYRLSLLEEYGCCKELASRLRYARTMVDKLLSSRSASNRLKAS

[7] = target: Casein kinase I isoform delta (Homo sapiens, UniProt P48730); format: functional;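 further: measured as one member (CSNK1D) of a kinome panel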
[8] = target: Receptor-type tyrosine-protein kinase FLT3 (Homo sapiens, UniProt P36888); format: functional;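 further: FLT3 was tested as one member of a kinome-wide kinase panel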
Sequence of Receptor-type tyrosine-protein kinase FLT3 (P36888 whole entry): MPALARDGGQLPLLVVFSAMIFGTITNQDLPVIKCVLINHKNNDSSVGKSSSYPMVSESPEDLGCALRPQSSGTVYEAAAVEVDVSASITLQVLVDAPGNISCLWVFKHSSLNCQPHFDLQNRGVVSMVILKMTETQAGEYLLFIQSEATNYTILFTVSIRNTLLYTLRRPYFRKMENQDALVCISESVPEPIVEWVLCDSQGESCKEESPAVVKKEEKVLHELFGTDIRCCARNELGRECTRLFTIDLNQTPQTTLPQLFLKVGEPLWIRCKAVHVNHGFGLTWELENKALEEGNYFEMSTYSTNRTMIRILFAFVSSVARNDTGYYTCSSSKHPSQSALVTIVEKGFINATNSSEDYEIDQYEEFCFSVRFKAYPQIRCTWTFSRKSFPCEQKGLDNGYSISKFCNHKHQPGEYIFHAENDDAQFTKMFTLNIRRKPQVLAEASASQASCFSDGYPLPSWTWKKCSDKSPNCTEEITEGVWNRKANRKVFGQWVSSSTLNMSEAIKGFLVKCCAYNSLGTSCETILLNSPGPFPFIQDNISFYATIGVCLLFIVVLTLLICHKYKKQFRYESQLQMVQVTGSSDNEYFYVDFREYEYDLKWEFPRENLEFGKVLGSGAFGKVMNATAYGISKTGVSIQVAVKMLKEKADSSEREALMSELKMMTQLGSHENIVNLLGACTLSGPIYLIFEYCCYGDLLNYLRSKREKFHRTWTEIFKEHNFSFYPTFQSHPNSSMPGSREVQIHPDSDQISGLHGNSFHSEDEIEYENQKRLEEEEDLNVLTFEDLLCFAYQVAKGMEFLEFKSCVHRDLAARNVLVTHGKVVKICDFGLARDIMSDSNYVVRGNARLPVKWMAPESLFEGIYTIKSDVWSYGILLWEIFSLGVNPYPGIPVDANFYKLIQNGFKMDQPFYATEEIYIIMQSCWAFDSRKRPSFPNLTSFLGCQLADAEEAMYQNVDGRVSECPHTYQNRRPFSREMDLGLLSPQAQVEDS

[9] = target: Death-associated protein kinase 3 (Homo sapiens, UniProt O43293); format: functional;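 further: measured as one member of a kinome-wide profiling panel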
[10] = target: Serine/threonine-protein kinase PLK4 (Homo sapiens, UniProt O00444); format: functional;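 further: PLK4 measured as one member of a kinome-wide kinase profiling panel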
Sequence of Serine/threonine-protein kinase PLK4 (O00444 whole entry): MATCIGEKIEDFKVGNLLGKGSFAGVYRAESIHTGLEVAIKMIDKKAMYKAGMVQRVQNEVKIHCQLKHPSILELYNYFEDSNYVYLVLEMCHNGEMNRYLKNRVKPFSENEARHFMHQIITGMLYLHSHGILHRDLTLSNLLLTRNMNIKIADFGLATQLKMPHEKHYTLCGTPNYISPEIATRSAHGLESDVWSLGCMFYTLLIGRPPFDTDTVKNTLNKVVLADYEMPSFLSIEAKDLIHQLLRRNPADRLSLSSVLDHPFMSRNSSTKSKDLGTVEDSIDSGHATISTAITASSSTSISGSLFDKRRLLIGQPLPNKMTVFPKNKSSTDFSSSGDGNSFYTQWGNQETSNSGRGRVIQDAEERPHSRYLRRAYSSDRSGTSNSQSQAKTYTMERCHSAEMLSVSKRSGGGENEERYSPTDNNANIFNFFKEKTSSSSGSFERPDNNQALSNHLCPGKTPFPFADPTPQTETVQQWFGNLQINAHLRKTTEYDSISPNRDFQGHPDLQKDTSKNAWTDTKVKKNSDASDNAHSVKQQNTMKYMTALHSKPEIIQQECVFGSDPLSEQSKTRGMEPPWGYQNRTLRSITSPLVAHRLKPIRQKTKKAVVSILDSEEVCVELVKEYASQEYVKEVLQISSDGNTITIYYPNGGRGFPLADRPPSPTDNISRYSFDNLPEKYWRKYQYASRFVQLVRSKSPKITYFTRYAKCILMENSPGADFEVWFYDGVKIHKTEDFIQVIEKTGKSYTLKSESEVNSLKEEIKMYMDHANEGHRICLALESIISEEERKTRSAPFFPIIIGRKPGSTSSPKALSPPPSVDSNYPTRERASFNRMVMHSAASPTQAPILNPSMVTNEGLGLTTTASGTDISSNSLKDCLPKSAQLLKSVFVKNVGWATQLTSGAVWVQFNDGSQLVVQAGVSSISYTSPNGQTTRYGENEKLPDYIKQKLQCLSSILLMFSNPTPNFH

[11] = target: Small ubiquitin-related modifier 1 (Homo sapiens, UniProt P63165); assay: inhibitors of SUMO1 partner interactions, dose response, biochemical, FRET (AID 624383); format: functional; conditions: read-out: IC50_Mean
Sequence of Small ubiquitin-related modifier 1 (P63165 whole entry): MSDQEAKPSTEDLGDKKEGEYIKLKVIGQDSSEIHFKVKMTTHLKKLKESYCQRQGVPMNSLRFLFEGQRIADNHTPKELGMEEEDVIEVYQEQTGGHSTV

[12] = inhibition of K1F phage lysis, E. coli UTI89, bacterial capsule biogenesis inhibitors, alamar blue (AID 488966); format: functional
CAAX prenyl protease 2 = target: T2, CAAX prenyl protease 2 (Saccharomyces cerevisiae S288c, UniProt Q03530); format: biochemical
T2 sequence (Q03530 whole entry): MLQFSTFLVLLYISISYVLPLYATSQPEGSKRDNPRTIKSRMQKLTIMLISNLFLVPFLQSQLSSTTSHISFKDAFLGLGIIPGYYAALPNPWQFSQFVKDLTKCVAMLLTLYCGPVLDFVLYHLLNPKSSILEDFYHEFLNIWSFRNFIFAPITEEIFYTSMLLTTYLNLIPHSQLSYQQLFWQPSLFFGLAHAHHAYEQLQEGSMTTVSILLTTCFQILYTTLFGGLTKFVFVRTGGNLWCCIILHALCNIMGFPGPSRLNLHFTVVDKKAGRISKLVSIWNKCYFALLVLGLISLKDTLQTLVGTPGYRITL

[13] = cytotoxicity toward DRD oncogenic fibroblasts, dose response, cell-based, non-viral oncogenic, luminescence (AID 1934); format: functional; conditions: Homo sapiens
[14] = target: T3, Rac GTPase-activating protein 1 (Homo sapiens, UniProt Q9H0H5); assay: MgcRacGAP GTPase-activating activity inhibitors, confirmation, biochemical, ADP Hunter fluorescence, primary and confirmatory (AID 624330); format: functional
T3 sequence (Q9H0H5 whole entry): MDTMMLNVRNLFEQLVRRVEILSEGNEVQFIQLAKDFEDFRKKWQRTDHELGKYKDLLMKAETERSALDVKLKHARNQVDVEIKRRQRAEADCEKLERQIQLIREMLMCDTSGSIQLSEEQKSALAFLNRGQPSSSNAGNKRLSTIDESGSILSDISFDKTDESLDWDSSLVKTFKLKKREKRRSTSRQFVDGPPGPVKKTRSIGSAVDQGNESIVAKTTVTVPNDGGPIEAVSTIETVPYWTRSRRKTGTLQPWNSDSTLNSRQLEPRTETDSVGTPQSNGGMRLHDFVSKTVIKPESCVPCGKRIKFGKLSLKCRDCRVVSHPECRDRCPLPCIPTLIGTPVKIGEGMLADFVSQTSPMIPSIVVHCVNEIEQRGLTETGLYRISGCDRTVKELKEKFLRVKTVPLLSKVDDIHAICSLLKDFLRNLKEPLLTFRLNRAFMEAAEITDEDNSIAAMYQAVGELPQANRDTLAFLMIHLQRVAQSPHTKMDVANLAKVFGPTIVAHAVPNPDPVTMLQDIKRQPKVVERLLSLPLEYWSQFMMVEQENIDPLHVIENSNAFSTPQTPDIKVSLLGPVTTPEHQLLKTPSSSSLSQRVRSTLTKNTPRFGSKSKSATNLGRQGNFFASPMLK

SMILES: CCC(C)NC(=O)c1c(N)n(CCCOC)c2nc3ccccc3nc12 (stereo not given)
- EC50 [1]: 33.2 µM (active)
- IC50 [2]: 1.36 µM (active)

- Ki [3]: 316 nM (active)
- Ki [4]: 3.16 µM (active)
- Ki [5]: > 3.98 µM (inactive)
- Ki [6]: > 7.94 µM (inactive)
- Ki [7]: > 7.94 µM (inactive)
- Ki [8]: 2 µM (active)
- Ki [10]: > 3.98 µM (inactive)
SMILES: CC(=NNC(=N)N)c1cc(NC(=O)NCCCCCCNC(=O)Nc2cc(C(C)=NNC(=N)N)cc(C(C)=NNC(=N)N)c2)cc(C(C)=NNC(=N)N)c1
- Ki [9]: 158 nM (active)

SMILES: Cc1cc(N)c2cc(NC(=O)/C=C/c3ccccc3Cl)ccc2n1
- IC50 [11]: 7.51 µM (active)
- IC50 [12]: > 75 µM (active)
- AC50 (CAAX prenyl protease 2): 6.78 µM (active)
- EC50 [13]: 2.88 µM (active)
- IC50 [14]: 23.7 µM (active)
